According to ChEMBL document CHEMBL1201862, “PubChem BioAssay data set” (2004):
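In this assay, cells in 96-well plates receive the compound at five concentrations for 48 hours. Endpoints are linearly interpolated between the surrounding concentrations. Here, GI50 denotes the concentration required for 50% inhibition of growth.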 Activity calls are given as the source filed them. No stated cut-off is given here; in the data, active = GI50 up to about 1.1 µM and inactive = higher. Where a SMILES comes first, the peptide text is derived from it. The star is where a group is joined. Boc = CC(C)(C)OC(=O)*

Key:
Experiment in all cases: NCI tumour cell line growth inhibition, 48 h
786-0 = tested on: 786-0
A498 = tested on: A498
CAKI-1 = tested on: CAKI-1
CCRF-CEM = tested on: CCRF-CEM
COLO 205 = tested on: COLO 205
DLD-1 = tested on: DLD-1
DMS-114 = tested on: DMS-114
DMS-273 = tested on: DMS-273
HCC 2998 = tested on: HCC 2998
HCT-116 = tested on: HCT-116
HL-60 = tested on: HL-60
HOP-62 = tested on: HOP-62
HOP-92 = tested on: HOP-92
IGROV-1 = tested on: IGROV-1
K562 = tested on: K562
LOX IMVI = tested on: LOX IMVI
LXFL 529 = tested on: LXFL 529
M14 = tested on: M14
M19-MEL = tested on: M19-MEL
MOLT-4 = tested on: MOLT-4
Malme-3M = tested on: Malme-3M
NCI-H226 = tested on: NCI-H226
NCI-H23 = tested on: NCI-H23
NCI-H460 = tested on: NCI-H460
NCI-H522 = tested on: NCI-H522
OVCAR-4 = tested on: OVCAR-4
RPMI-8226 = tested on: RPMI-8226
RXF 631 = tested on: RXF 631
SF-268 = tested on: SF-268
SF-539 = tested on: SF-539
SK-MEL-28 = tested on: SK-MEL-28
SK-MEL-2 = tested on: SK-MEL-2
SK-OV-3 = tested on: SK-OV-3
SN12C = tested on: SN12C
SNB-75 = tested on: SNB-75
SNB-78 = tested on: SNB-78
SR = tested on: SR
UACC-62 = tested on: UACC-62
UO-31 = tested on: UO-31
XF498 = tested on: XF498
A549 = tested on: A549
ACHN = tested on: ACHN
EKVX = tested on: EKVX
HT-29 = tested on: HT-29
KM12 = tested on: KM12
OVCAR-5 = tested on: OVCAR-5
OVCAR-8 = tested on: OVCAR-8
RXF 393 = tested on: RXF 393
SF-295 = tested on: SF-295
SNB-19 = tested on: SNB-19
TK-10 = tested on: TK-10
U-251 = tested on: U-251
UACC-257 = tested on: UACC-257
HCT-15 = tested on: HCT-15
KM-20L2 = tested on: KM-20L2
OVCAR-3 = tested on: OVCAR-3
SK-MEL-5 = tested on: SK-MEL-5
SW-620 = tested on: SW-620

With `CSCCC(NC(=O)C(CC(C)C)NC(=O)C1CCCN1C(=O)C(Cc1ccccc1)NC(=O)C(Cc1ccccc1)NC(=O)C(CCC(=O)O)NC(=O)OC(C)(C)C)C(N)=O` (stereo not drawn) (Boc-EFFPLM-NH2; configuration not given here) the GI50 (786-0) was > 100 µM (inactive), the GI50 (A498) was > 100 µM (inactive) and the GI50 (CAKI-1) was > 100 µM (inactive). The GI50 (CCRF-CEM) was > 100 µM (inactive), the GI50 (COLO 205) was > 100 µM (inactive) and the GI50 (DLD-1) was > 100 µM (inactive). For the same compound, the GI50 (DMS-114) was > 100 µM (inactive), the GI50 (DMS-273) was > 100 µM (inactive) and the GI50 (HCC 2998) was > 100 µM (inactive). For the same compound, the GI50 (HCT-116) was > 100 µM (inactive), the GI50 (HL-60) was > 100 µM (inactive) and the GI50 (HOP-62) was > 100 µM (inactive). The GI50 (HOP-92) was > 100 µM (inactive), the GI50 (IGROV-1) was > 100 µM (inactive) and the GI50 (K562) was > 100 µM (inactive). The GI50 (LOX IMVI) was > 100 µM (inactive), the GI50 (LXFL 529) was > 100 µM (inactive) and the GI50 (M14) was > 100 µM (inactive). For the same compound, the GI50 (M19-MEL) was > 100 µM (inactive), the GI50 (MOLT-4) was > 100 µM (inactive) and the GI50 (Malme-3M) was > 100 µM (inactive). For the same compound, the GI50 (NCI-H226) was > 100 µM (inactive), the GI50 (NCI-H23) was > 100 µM (inactive) and the GI50 (NCI-H460) was > 100 µM (inactive). For the same compound, the GI50 (NCI-H522) was > 100 µM (inactive), the GI50 (OVCAR-4) was > 100 µM (inactive) and the GI50 (RPMI-8226) was > 100 µM (inactive). The GI50 (RXF 631) was > 100 µM (inactive), the GI50 (SF-268) was > 100 µM (inactive) and the GI50 (SF-539) was > 100 µM (inactive). The GI50 (SK-MEL-28) was > 100 µM (inactive), the GI50 (SK-MEL-2) was > 100 µM (inactive) and the GI50 (SK-OV-3) was > 100 µM (inactive). For the same compound, the GI50 (SN12C) was > 100 µM (inactive), the GI50 (SNB-75) was > 100 µM (inactive) and the GI50 (SNB-78) was > 100 µM (inactive). For the same compound, the GI50 (SR) was > 100 µM (inactive), the GI50 (UACC-62) was > 100 µM (inactive) and the GI50 (UO-31) was > 100 µM (inactive). The GI50 (XF498) was > 100 µM (inactive).
In the case of `CCN(CC)CSc1nc2ccccc2o1`, the GI50 (A498) is reported as > 100 µM (inactive), the GI50 (A549) is reported as > 100 µM (inactive) and the GI50 (ACHN) is reported as > 100 µM (inactive). The GI50 (CCRF-CEM) was > 100 µM (inactive), the GI50 (DMS-114) was > 100 µM (inactive) and the GI50 (DMS-273) was > 100 µM (inactive). The GI50 (EKVX) was > 100 µM (inactive), the GI50 (HCT-116) was > 100 µM (inactive) and the GI50 (HL-60) was > 100 µM (inactive). The GI50 (HOP-62) was > 100 µM (inactive), the GI50 (HOP-92) was > 100 µM (inactive) and the GI50 (HT-29) was > 100 µM (inactive). The GI50 (IGROV-1) was > 100 µM (inactive), the GI50 (KM12) was > 100 µM (inactive) and the GI50 (M14) was > 100 µM (inactive). The GI50 (M19-MEL) was > 100 µM (inactive), the GI50 (MOLT-4) was > 100 µM (inactive) and the GI50 (NCI-H23) was > 100 µM (inactive). For the same compound, the GI50 (NCI-H460) was > 100 µM (inactive), the GI50 (NCI-H522) was > 100 µM (inactive) and the GI50 (OVCAR-5) was > 100 µM (inactive). The GI50 (OVCAR-8) was > 100 µM (inactive), the GI50 (RXF 393) was > 100 µM (inactive) and the GI50 (RXF 631) was > 100 µM (inactive). The GI50 (SF-295) was > 100 µM (inactive), the GI50 (SK-MEL-28) was > 100 µM (inactive) and the GI50 (SK-OV-3) was > 100 µM (inactive). For the same compound, the GI50 (SNB-19) was > 100 µM (inactive), the GI50 (SNB-78) was > 100 µM (inactive) and the GI50 (SR) was > 100 µM (inactive). The GI50 (TK-10) was > 100 µM (inactive), the GI50 (U-251) was > 100 µM (inactive) and the GI50 (UACC-257) was > 100 µM (inactive). For the same compound, the GI50 (UACC-62) was > 100 µM (inactive) and the GI50 (UO-31) was > 100 µM (inactive).
`CN/N=C(/c1nc2ccc([N+](=O)[O-])cc2nc1O)C(O)c1ccc(C(O)/C(=N\NC)c2nc3ccc([N+](=O)[O-])cc3nc2O)cc1` (stereo not drawn) was tested, and the GI50 (786-0) was > 100 µM (inactive), the GI50 (A498) was > 100 µM (inactive) and the GI50 (A549) was 64.6 µM (inactive). The GI50 (ACHN) was 46.9 µM (inactive), the GI50 (CAKI-1) was > 100 µM (inactive) and the GI50 (CCRF-CEM) was 19.8 µM (inactive). For the same compound, the GI50 (COLO 205) was 64.9 µM (inactive), the GI50 (DLD-1) was 35.6 µM (inactive) and the GI50 (DMS-114) was 7.16 µM (inactive). For the same compound, the GI50 (DMS-273) was 31.4 µM (inactive), the GI50 (EKVX) was > 100 µM (inactive) and the GI50 (HCC 2998) was 23.9 µM (inactive). The GI50 (HCT-116) was > 100 µM (inactive), the GI50 (HCT-15) was 29.5 µM and the GI50 (HL-60) was 4.37 µM (inactive). The GI50 (HOP-62) was 42.2 µM (inactive), the GI50 (HOP-92) was > 100 µM (inactive) and the GI50 (HT-29) was > 100 µM (inactive). The GI50 (IGROV-1) was > 100 µM (inactive), the GI50 (K562) was 32.5 µM (inactive) and the GI50 (KM-20L2) was 63 µM (inactive). For the same compound, the GI50 (KM12) was > 100 µM (inactive), the GI50 (LOX IMVI) was > 100 µM (inactive) and the GI50 (LXFL 529) was 20.7 µM (inactive). The GI50 (M14) was 52.4 µM (inactive), the GI50 (M19-MEL) was > 100 µM (inactive) and the GI50 (MOLT-4) was 48.2 µM (inactive). The GI50 (Malme-3M) was > 100 µM (inactive), the GI50 (NCI-H226) was > 100 µM (inactive) and the GI50 (NCI-H23) was > 100 µM (inactive). The GI50 (NCI-H460) was 42.6 µM (inactive), the GI50 (OVCAR-3) was > 100 µM (inactive) and the GI50 (OVCAR-5) was > 100 µM (inactive). For the same compound, the GI50 (OVCAR-8) was > 100 µM (inactive), the GI50 (RPMI-8226) was 68.1 µM (inactive) and the GI50 (RXF 393) was > 100 µM (inactive). For the same compound, the GI50 (RXF 631) was 21.3 µM (inactive), the GI50 (SF-268) was > 100 µM (inactive) and the GI50 (SF-295) was 66.4 µM (inactive). The GI50 (SF-539) was 42.6 µM (inactive), the GI50 (SK-MEL-28) was > 100 µM (inactive) and the GI50 (SK-MEL-2) was 48 µM (inactive). The GI50 (SK-MEL-5) was > 100 µM (inactive), the GI50 (SK-OV-3) was > 100 µM (inactive) and the GI50 (SNB-19) was > 100 µM (inactive). The GI50 (SNB-75) was > 100 µM (inactive), the GI50 (SNB-78) was > 100 µM (inactive) and the GI50 (SW-620) was 82.8 µM (inactive). The GI50 (TK-10) was > 100 µM (inactive), the GI50 (U-251) was > 100 µM (inactive) and the GI50 (UACC-257) was 52.6 µM (inactive). The GI50 (UACC-62) was 44.9 µM (inactive) and the GI50 (UO-31) was 55 µM (inactive).
